From patent publication US4590270A, “2,4-diamino-[4-piperidinyl]pyrimidines useful as antibacterial agents, antimalarial agents, antitumors agents” (Hoffmann-La Roche Inc., priority 1983, dated 1986) come the findings set out here.

Test [1] deals with Bacteroides fragilis strains. Briefly: in vitro minimum inhibitory concentration against Bacteroides fragilis strains. It is filed as cell-based. As for the experimental part:
(§1) In the case of in vitro experiments an minimum inhibitory concentration of 0.1-1.6 μg/ml has been determined for compound A against Bacteroides fragilis strains. […] In comparison to this, values of 79 and 45 μg/l, respectively, were determined for the known pyrimethamine.

The test system of a further test is P. falciparum. Briefly: in vitro activity against malaria pathogen P. falciparum. The test is classed as cell-based. Particulars: Plasmodium falciparum. As for the experimental part:
as §1

The target in test [2] is dihydrofolate reductase from E. coli (Escherichia coli, UniProt P0ABQ4). Briefly: inhibition of dihydrofolate reductase from E. coli. The test is classed as biochemical.
The mark [3] stands for this setting: P. falciparum strain 13, read-out: ID50 (the source's name).
The mark [4] stands for this setting: P. falciparum strain T9, read-out: ID50 (the source's name).

≈ marks a conversion by molar mass, not a printed value. Like-named read-outs stand apart in the source and are kept apart here.

What is called MIC is the lowest concentration found to suppress growth. Read a low MIC as greater potency. Regarding `COc1cc(OC)cc(N2[C@@H]3CC[C@H]2C[C@H](c2cnc(N)nc2N)C3)c1` [compound A, exo-2,4-diamino-5-[8-(3,5-dimethoxyphenyl)-8-azabicyclo[3.2.1]oct-3-yl]pyrimidine], the MIC in test [1] is 0.1 to 1.6 µg/mL (≈ 0.281 to 4.5 µM). Further, the IC50 in the test on P. falciparum (setting [3]) came to 0.0009 µg/mL (≈ 0.00253 µM); in the test with P. falciparum (setting [4]) it was 0.0014 µg/mL (≈ 0.00394 µM); in test [2], 3.3 nM.
Consider `CCc1nc(N)nc(N)c1-c1ccc(Cl)cc1` [pyrimethamine, reference compound], for which the IC50 was 0.045 µg/mL (≈ 0.181 µM) with P. falciparum (setting [3]) and 0.079 µg/mL (≈ 0.318 µM) in the test with P. falciparum (setting [4]).
